Assay results as given in the supplement of paper PMC11451515.

Experiments:
Conditions in all cases: 48 h
SEM cells [1] = assay: AUC of viability dose-response curve (% viability x log10 dose units); higher = less sensitive
Procedure, shortened: (§1)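 Library compounds in DMSO were applied for 48 h at 37°C at 11 threefold doses (47 μM to 0.79 nM) to medium-adapted leukemia cells in 1536-well plates holding 500 or 1000 cells/well. Luminescence from CellTiter-Glo One was normalised plate by plate against DMSO and cell-free wells. Area under the curve came from trapezoidal integration of a log-logistic fit, after scaling curves that rose above full viability and discarding those that failed quality control. The fit had four parameters and used log10 doses.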

NOMO1 [2] = assay: as above
Procedure, shortened: as §1

P12-Ichikawa [3] = assay: as above
Procedure, shortened: as §1

SEM cells [4] = assay: cell viability relative to DMSO control; higher = less cytotoxic
Procedure, shortened: (§2)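 Viability values are per-plate percentages of DMSO wells, with background from cell-free wells. Library compounds in DMSO were pin-dosed, in an 11-point threefold series from 47 μM to 0.79 nM, onto NOMO1 or SEM (500 cells/well) or P12-Ichikawa (1000 cells/well) leukemia cells in 1536-well plates (5 μl). Those cells had been adapted for at least four passages in each medium, and CellTiter-Glo One luminescence was read after 48 h at 37°C.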

NOMO1 [5] = assay: as above
Procedure, shortened: as §2

P12-Ichikawa [6] = assay: as above
Procedure, shortened: as §2

CC1(C)[C@@H](O[C@H]2O[C@H](C(=O)O)[C@@H](O)[C@H](O)[C@H]2O[C@@H]2O[C@H](C(=O)O)[C@@H](O)[C@H](O)[C@H]2O)CC[C@]2(C)[C@H]3C(=O)C=C4[C@@H]5C[C@@](C)(C(=O)O)CC[C@]5(C)CC[C@@]4(C)[C@]3(C)CC[C@@H]12
AUC of viability dose-response curve
Conditions	NOMO1 [2]	P12-Ichikawa [3]	SEM cells [1]
HPLM + 10% dialyzed FBS	407	473	383
RPMI 5 mM glucose + 10% FBS	455	468	437
RPMI 5 mM glucose + 10% dialyzed FBS	452	470	450

cell viability [%]
Conditions	NOMO1 [5]	P12-Ichikawa [6]	SEM cells [4]
HPLM + 10% dialyzed FBS, 0.000781 µM	–	112	116
HPLM + 10% dialyzed FBS, 0.00234 µM	–	130	113
HPLM + 10% dialyzed FBS, 0.00702 µM	–	118	117
HPLM + 10% dialyzed FBS, 0.0211 µM	–	132	104
HPLM + 10% dialyzed FBS, 0.0632 µM	–	128	145
HPLM + 10% dialyzed FBS, 0.19 µM	–	131	114
HPLM + 10% dialyzed FBS, 0.569 µM	–	136	143
HPLM + 10% dialyzed FBS, 1.71 µM	–	128	128
HPLM + 10% dialyzed FBS, 5.12 µM	–	123	150
HPLM + 10% dialyzed FBS, 15.4 µM	–	128	165
HPLM + 10% dialyzed FBS, 46.1 µM	–	135	163
RPMI 5 mM glucose + 10% dialyzed FBS, 0.000781 µM	109	–	–
RPMI 5 mM glucose + 10% dialyzed FBS, 0.00234 µM	123	–	–
RPMI 5 mM glucose + 10% dialyzed FBS, 0.00702 µM	134	–	–
RPMI 5 mM glucose + 10% dialyzed FBS, 0.0211 µM	142	–	–
RPMI 5 mM glucose + 10% dialyzed FBS, 0.0632 µM	154	–	–
RPMI 5 mM glucose + 10% dialyzed FBS, 0.19 µM	145	–	–
RPMI 5 mM glucose + 10% dialyzed FBS, 0.569 µM	136	–	–
RPMI 5 mM glucose + 10% dialyzed FBS, 1.71 µM	160	–	–
RPMI 5 mM glucose + 10% dialyzed FBS, 5.12 µM	154	–	–
RPMI 5 mM glucose + 10% dialyzed FBS, 15.4 µM	140	–	–
RPMI 5 mM glucose + 10% dialyzed FBS, 46.1 µM	161	–	–

CN1CCCN(C(=O)c2cccc(-c3ccc(/C=C4/C(=O)Nc5ccc(Cl)cc54)o3)c2)CC1
AUC of viability dose-response curve
Conditions	NOMO1 [2]	P12-Ichikawa [3]	SEM cells [1]
HPLM + 10% dialyzed FBS	399	419	362
RPMI 5 mM glucose + 10% FBS	446	372	324
RPMI 5 mM glucose + 10% dialyzed FBS	436	396	332

cell viability [%]
Conditions	NOMO1 [5]	P12-Ichikawa [6]	SEM cells [4]
HPLM + 10% dialyzed FBS, 0.000781 µM	134	106	98.9
HPLM + 10% dialyzed FBS, 0.00234 µM	118	119	106
HPLM + 10% dialyzed FBS, 0.00702 µM	120	114	109
HPLM + 10% dialyzed FBS, 0.0211 µM	124	116	101
HPLM + 10% dialyzed FBS, 0.0632 µM	112	114	118
HPLM + 10% dialyzed FBS, 0.19 µM	102	120	107
HPLM + 10% dialyzed FBS, 0.569 µM	109	106	84.1
HPLM + 10% dialyzed FBS, 1.71 µM	103	92.3	71.7
HPLM + 10% dialyzed FBS, 5.12 µM	91.8	76.9	48.4
HPLM + 10% dialyzed FBS, 15.4 µM	96.7	76.9	22.8
HPLM + 10% dialyzed FBS, 46.1 µM	66.1	59.2	2.97
RPMI 5 mM glucose + 10% FBS, 0.000781 µM	124	117	90.2
RPMI 5 mM glucose + 10% FBS, 0.00234 µM	107	108	117
RPMI 5 mM glucose + 10% FBS, 0.00702 µM	108	111	106
RPMI 5 mM glucose + 10% FBS, 0.0211 µM	110	117	119
RPMI 5 mM glucose + 10% FBS, 0.0632 µM	98.3	115	127
RPMI 5 mM glucose + 10% FBS, 0.19 µM	109	110	112
RPMI 5 mM glucose + 10% FBS, 0.569 µM	94.4	102	77.2
RPMI 5 mM glucose + 10% FBS, 1.71 µM	96.1	85.8	48
RPMI 5 mM glucose + 10% FBS, 5.12 µM	99.4	54.7	16.7
RPMI 5 mM glucose + 10% FBS, 15.4 µM	85.8	20.1	5.69
RPMI 5 mM glucose + 10% FBS, 46.1 µM	47.4	3.03	3.36
RPMI 5 mM glucose + 10% dialyzed FBS, 0.000781 µM	111	103	110
RPMI 5 mM glucose + 10% dialyzed FBS, 0.00234 µM	112	107	108
RPMI 5 mM glucose + 10% dialyzed FBS, 0.00702 µM	109	117	115
RPMI 5 mM glucose + 10% dialyzed FBS, 0.0211 µM	107	114	106
RPMI 5 mM glucose + 10% dialyzed FBS, 0.0632 µM	111	113	114
RPMI 5 mM glucose + 10% dialyzed FBS, 0.19 µM	109	108	115
RPMI 5 mM glucose + 10% dialyzed FBS, 0.569 µM	104	111	75.7
RPMI 5 mM glucose + 10% dialyzed FBS, 1.71 µM	96.2	90.7	62.9
RPMI 5 mM glucose + 10% dialyzed FBS, 5.12 µM	85.6	64.3	20.4
RPMI 5 mM glucose + 10% dialyzed FBS, 15.4 µM	94.5	53	5.5
RPMI 5 mM glucose + 10% dialyzed FBS, 46.1 µM	60	5.68	3.68

CN1C(=O)\C(=C/C(=C1/NC2=C(F)C=C(I)C=C2)C(=O)NOCCO)C
AUC of viability dose-response curve
Conditions	NOMO1 [2]	P12-Ichikawa [3]	SEM cells [1]
HPLM + 10% dialyzed FBS	257	441	398
RPMI 5 mM glucose + 10% FBS	281	423	403
RPMI 5 mM glucose + 10% dialyzed FBS	253	451	342

cell viability [%]
Conditions	NOMO1 [5]	P12-Ichikawa [6]	SEM cells [4]
HPLM + 10% dialyzed FBS, 0.000781 µM	89.8	94.6	92.4
HPLM + 10% dialyzed FBS, 0.00234 µM	89.6	99.5	107
HPLM + 10% dialyzed FBS, 0.00702 µM	77.9	103	106
HPLM + 10% dialyzed FBS, 0.0211 µM	64.2	93.4	91.8
HPLM + 10% dialyzed FBS, 0.0632 µM	46.3	90.4	91.7
HPLM + 10% dialyzed FBS, 0.19 µM	45.8	90.1	78.7
HPLM + 10% dialyzed FBS, 0.569 µM	40.2	94.5	67.8
HPLM + 10% dialyzed FBS, 1.71 µM	41.6	88.9	67.5
HPLM + 10% dialyzed FBS, 5.12 µM	32.9	94.5	77.2
HPLM + 10% dialyzed FBS, 15.4 µM	39.8	87.7	70.6
HPLM + 10% dialyzed FBS, 46.1 µM	36.1	78.1	72.9
RPMI 5 mM glucose + 10% FBS, 0.000781 µM	86	98.2	97.1
RPMI 5 mM glucose + 10% FBS, 0.00234 µM	93.8	104	102
RPMI 5 mM glucose + 10% FBS, 0.00702 µM	75.3	98.9	93.9
RPMI 5 mM glucose + 10% FBS, 0.0211 µM	72	90.7	99
RPMI 5 mM glucose + 10% FBS, 0.0632 µM	50.2	88.8	76.9
RPMI 5 mM glucose + 10% FBS, 0.19 µM	52.2	85.3	72.7
RPMI 5 mM glucose + 10% FBS, 0.569 µM	49.4	85.5	82
RPMI 5 mM glucose + 10% FBS, 1.71 µM	46.7	84.7	86
RPMI 5 mM glucose + 10% FBS, 5.12 µM	43.4	85.7	84
RPMI 5 mM glucose + 10% FBS, 15.4 µM	41.4	87.1	70.8
RPMI 5 mM glucose + 10% FBS, 46.1 µM	46.5	81.1	65
RPMI 5 mM glucose + 10% dialyzed FBS, 0.000781 µM	75	94.6	109
RPMI 5 mM glucose + 10% dialyzed FBS, 0.00234 µM	81.7	105	91.8
RPMI 5 mM glucose + 10% dialyzed FBS, 0.00702 µM	78.5	96.2	98
RPMI 5 mM glucose + 10% dialyzed FBS, 0.0211 µM	62.9	99.6	78.3
RPMI 5 mM glucose + 10% dialyzed FBS, 0.0632 µM	45.9	92.3	77.7
RPMI 5 mM glucose + 10% dialyzed FBS, 0.19 µM	40.8	90.7	60.4
RPMI 5 mM glucose + 10% dialyzed FBS, 0.569 µM	40	95.8	72.3
RPMI 5 mM glucose + 10% dialyzed FBS, 1.71 µM	40.4	90.9	68.1
RPMI 5 mM glucose + 10% dialyzed FBS, 5.12 µM	37.6	101	63.2
RPMI 5 mM glucose + 10% dialyzed FBS, 15.4 µM	43.1	91	59
RPMI 5 mM glucose + 10% dialyzed FBS, 46.1 µM	43.3	74.9	67.8
